{
  "source": "patent US20060094660A1",
  "about": "“Inhibitor of the shh signalling patway and a testosterone supressing agent for the treatment of cancer” (priority 2002, published 2006)",
  "key": {"Ptc transcripts [1]": {"test_system": "Ptc transcripts", "experiment": "RNase protection assay, VPs grown in vitro", "format": "cell-based, rat", "settings": "six days −/+T; or five days T then one day cyproterone acetate", "description": "(§1) DNA templates for Shh and Ptc riboprobes were synthesised by RT-PCR from P0 UGT cDNA and subcloned into pBluescript KSII+ (Stratagene, USA). PCR primers were designed using GenBank-published cDNA sequences (Shh: GenBank Accession No. NM_017221; Primers: L—[…] (SEQ ID No 1), R—[…] (SEQ ID No 2); Ptc: GenBank Accession No. AF079162; Primers L—[…] (SEQ ID No 3), R—[…] (SEQ ID No 4)). DNA templates for Cyclophilin (Cphn) and 28S riboprobes were from Ambion, Inc., USA. ^32P-labelled anti-sense riboprobes were transcribed, and RNase protection assays performed as previously described in detail (Thomson et al., 1997). RNase protected products from Shh, Ptc, Cphn and 28S riboprobes were 269 nucleotides (nt), 322 nt, 103 nt and 155 nt respectively. Gels were imaged using a Storm phosphorimager (Molecular Dynamics, USA) and transcript abundance was determined from the intensities of bands, calculated using ImageQuant V.1.2 (Molecular Dynamics, USA).\n(§2) RPAs were performed to analyse Shh and Ptc transcripts levels in VPs and URs grown in vitro. VPs were cultured for six days in the presence or absence of T; or for five days with T followed by a one-day treatment with the AR antagonist cyproterone acetate (FIG. 3B). […] Similarly, in short-term cultures of VPs (seven hours or three days), no changes in transcript levels were observed (data not shown)."}, "Shh transcripts [2]": {"test_system": "Shh transcripts", "experiment": "RNase protection assay, VPs grown in vitro", "format": "cell-based, rat", "settings": "six days −/+T; or five days T then one day cyproterone acetate", "description": "as §1, §2"}, "ventral prostate (VP) [3]": {"test_system": "ventral prostate (VP)", "experimental": "Serum-free organ culture of P0 Wistar rat VPs was performed as previously described (Sugimura et al., 1996). […] The two-dimensional area and perimeter of organs was measured from live captured images using NIH Image software.\nP0 VPs were grown in vitro for five days in the presence (+) or absence (−) of T and with (+) or without (−) 100 μg ml^−1 anti-SHH antibody (5E1) (FIG. 4A), after which their two-dimensional area was measured (FIG. 4B).\nEffect of exogenous SHH on VP growth and branching. The effects of adding recombinant SHH to VPs grown in vitro was examined (FIG. 10). VPs were grown for 3 days −/+T and −/+recombinant SHH protein (n=6)."}, "ventral prostate (VP) [4]": {"test_system": "ventral prostate (VP)", "experiment": "Organ culture of P0 rat VPs: peripheral epithelial bud tips per unit perimeter", "format": "cell-based", "settings": "for mean bud tips per unit perimeter: six days; for mean bud tips per 1000 pixels perimeter: 3 days", "description": "We chose to analyse the effect of Cy on the prostatic epithelia of VPs grown in vitro. Epithelial bud tips situated at the periphery of VPs (total of 60 VPs from each of four treatment groups and 16 independent experiments) were counted and expressed as a ratio to organ perimeter, to account for the changes in organ size after treatments (FIG. 5C). The addition of Cy to organs cultured −T caused a significant increase in the number of peripheral tips per unit perimeter (−T=60.16±/−0.97 mean bud tips per unit perimeter versus −T +Cy=74.47+/−1.07; Student's t-test, P=1.31 e^−17). […] It is possible that the number of tips induced by T or Cy were the maximum for the in vitro system, thus additive effects may not be apparent due to the limitations of the system. […] An increase in peripheral tip number was also observed in VPs cultured with anti-SHH antibody (5E1) in the absence of T (−T=62.13+/−0.82 versus −T+5E1=93.03+/−1.08), with a similar peripheral tip number being observed between VPs cultured +T and +T+5E1 (+T=74.32+/−0.69 versus +T+5E1=79.21+/−1.28).\nThe number of peripheral bud tips from the cultured VPs was counted and expressed as a ratio to perimeter (FIG. 10C)."}, "ventral prostate (VP) [5]": {"test_system": "ventral prostate (VP)", "experiment": "Organ culture of P0 rat VPs: BrdU incorporation, mitotic/proliferative index", "format": "cell-based", "settings": "for % proliferative nuclei, mesenchyme: day 2; for % proliferative nuclei, epithelium: day 3", "experimental": "(§3) Anti-CK14 antibody was diluted at 1:100, and anti-p63 antibody (Santa Cruz Biotechnologies Inc., USA) was diluted at 1:500. […] Mitotic indices were calculated by counting the number of pan-cytokeratin-positive epithelial cells that were also BrdU-positive.\n[…] […] The percentage of proliferating cells was scored from three images of the peripheral tips of the organs (distal), and three images of the ducts closest to the urethra (proximal), totalling 27 distal and proximal counts for each treatment group.\nThe proliferative index of the epithelial and mesenchymal cell compartments was calculated for VPs cultured −/+T and −/+SHH after the addition of BrdU (FIG. 10D)."}, "Ptc transcripts [6]": {"test_system": "Ptc transcripts", "experiment": "RNase protection assay, female URs cultured three days", "format": "cell-based, rat", "settings": "three days −/+T (10^−8 M)", "description": "as §1, §2"}, "Shh transcripts [7]": {"test_system": "Shh transcripts", "experiment": "RNase protection assay, female URs cultured three days", "format": "cell-based, rat", "settings": "three days −/+T (10^−8 M)", "description": "as §1, §2"}, "UGS explants": {"test_system": "UGS explants", "settings": "for prostatic buds: 7 days", "quoted_text": "As the prostate was not well developed in either mutant (FIG. 9B) or wildtype males at this stage, UGS explants from both Shh null mice and their littermates were grown in vitro to determine if prostatic budding could be induced (n=3)."}, "[8]": {"target": "SONIC HEDGEHOG (SHH) protein, endogenous in cultured P0 Wistar rat ventral prostate (rat) (UniProt Q63673)", "sequence (Q63673 25-198 limits assumed)": "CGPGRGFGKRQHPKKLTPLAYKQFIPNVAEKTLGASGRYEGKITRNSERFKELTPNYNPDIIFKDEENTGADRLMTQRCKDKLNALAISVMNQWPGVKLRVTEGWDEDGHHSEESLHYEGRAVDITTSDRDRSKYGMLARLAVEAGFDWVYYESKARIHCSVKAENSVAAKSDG", "experiment": "cell-based or functional assay"}, "Shh transcripts [9]": {"test_system": "Shh transcripts", "settings": "explants cultured for three days; cited from earlier work"}, "ventral prostate (VP) [10]": {"test_system": "ventral prostate (VP)", "experiment": "Organ culture of P0 rat VPs: histology (Masson's trichrome) and p63/CK14 immunohistochemistry", "format": "cell-based", "settings": "six days", "experimental": "as §3\nProstatic ducts grow initially as solid cords, which then canalise, resulting in ducts that contain lumens. […] Normal prostatic ducts in rats consist of luminal secretory cells with underlying basal cells, forming a single lumen."}},
  "note": "Where “and” joins values, the source holds several entries; their conditions need not be identical. Identical values can stand only once. Like-named read-outs stand apart in the source and are kept apart here.",
  "data": [
    {"compound": "CC(=O)O[C@]1(C(C)=O)CC[C@H]2[C@@H]3C=C(Cl)C4=CC(=O)[C@@H]5C[C@@H]5[C@]4(C)[C@H]3CC[C@@]21C", "note": "[cyproterone acetate]", "values": [
      {"measurement": "Ptc transcript abundance", "setting": "Ptc transcripts [1]", "result": "No significant difference"},
      {"measurement": "Shh transcript abundance", "setting": "Shh transcripts [2]", "result": "No significant difference"}
    ]},
    {"compound": "C[C@]12CC[C@H]3[C@@H](CCC4=CC(=O)CC[C@@]43C)[C@@H]1CC[C@@H]2O", "note": "[T, testosterone]", "values": [
      {"measurement": "% area (2D area relative to −T)", "setting": "ventral prostate (VP) [3]; +T alone (SHH experiments), 3 days", "result": "127.05+/−5.12%"},
      {"measurement": "peripheral tip number", "setting": "ventral prostate (VP) [4]; +T alone (5E1 experiments)", "result": "74.32+/−0.69"},
      {"measurement": "mean bud tips per unit perimeter", "setting": "ventral prostate (VP) [4]; +T alone (Cy experiments)", "result": "71.80+/−0.83 bud tips per unit perimeter"},
      {"measurement": "mean bud tips per 1000 pixels perimeter", "setting": "ventral prostate (VP) [4]; +T alone (SHH experiments)", "result": "83.92+/−2.25 bud tips per 1000 pixels perimeter"},
      {"measurement": "mitotic nuclei in distal epithelial tips", "setting": "ventral prostate (VP) [5]; +T alone (Cy experiments), day six", "result": 23.24, "unit": "%+/−1.86%"},
      {"measurement": "% proliferative nuclei, mesenchyme", "setting": "ventral prostate (VP) [5]; +T alone (SHH experiments)", "result": 17.81, "unit": "%+/−1.22%"},
      {"measurement": "% proliferative nuclei, epithelium", "setting": "ventral prostate (VP) [5]; +T alone (SHH experiments)", "result": 32.54, "unit": "%+/−1.65%"},
      {"measurement": "proliferation in proximal ducts", "setting": "ventral prostate (VP) [5]; response to T", "result": "reduced"},
      {"measurement": "Ptc transcript abundance", "setting": "Ptc transcripts [1]", "result": "No significant difference"},
      {"measurement": "Shh transcript abundance", "setting": "Shh transcripts [2]", "result": "No significant difference"},
      {"measurement": "change in Ptc transcript levels", "setting": "Ptc transcripts [6]", "result": "no significant change"},
      {"measurement": "upregulation of Shh transcripts", "setting": "Shh transcripts [7]", "result": "two-and-a-half-fold"},
      {"measurement": "prostatic buds", "setting": "UGS explants; +T", "result": "present"}
    ]},
    {"compound": "SHH: recombinant SHH protein (Research Diagnostics, USA)", "values": [
      {"measurement": "% area (2D area relative to −T)", "setting": "ventral prostate (VP) [3]; +T +SHH, 3 days", "result": "123.03+/−6.75%"},
      {"measurement": "effect on mesenchyme of cultured VPs", "setting": "ventral prostate (VP) [3]; recombinant SHH, 3 days, both −/+T", "result": "expansion of the mesenchyme around the periphery of VPs"},
      {"measurement": "mean bud tips per 1000 pixels perimeter", "setting": "ventral prostate (VP) [4]; +T +SHH", "result": "68.34+/−2.57 bud tips per 1000 pixels perimeter"},
      {"measurement": "mean bud tips per 1000 pixels perimeter", "setting": "ventral prostate (VP) [4]; −T +SHH", "result": "48.0+/−3.35 bud tips per 1000 pixels perimeter"},
      {"measurement": "% proliferative nuclei, mesenchyme", "setting": "ventral prostate (VP) [5]; +T+SHH", "result": 20.47, "unit": "%+/−1.07%"},
      {"measurement": "% proliferative nuclei, epithelium", "setting": "ventral prostate (VP) [5]; +T+SHH", "result": 30.46, "unit": "%+/−1.72%"},
      {"measurement": "reduction of epithelial cell proliferation", "setting": "ventral prostate (VP) [5]; VPs grown +T, not statistically significant", "result": 6, "unit": "%"},
      {"measurement": "reduction of epithelial cell proliferation", "setting": "ventral prostate (VP) [5]; VPs grown −T", "result": "a third"},
      {"measurement": "% proliferative nuclei, epithelium", "setting": "ventral prostate (VP) [5]; −T +SHH", "result": 18.62, "unit": "%+/−2.06%"},
      {"measurement": "% proliferative nuclei, mesenchyme", "setting": "ventral prostate (VP) [5]; −T+SHH", "result": 19.45, "unit": "%+/−1.12%"}
    ]},
    {"compound": "anti-SHH antibody (clone 5E1, Developmental Studies Hybridoma Bank, University of Iowa)", "values": [
      {"measurement": "decrease in growth of P0 rat ventral prostate in vitro (two-dimensional area, five days of culture, 100 ug/ml antibody)", "setting": "[8]", "result": 20, "unit": "%"},
      {"measurement": "decrease in testosterone-induced growth of rat ventral prostates in vitro", "setting": "[8]", "result": 50, "unit": "%"}
    ]},
    {"compound": "C[C@]12CCC(=O)C[C@@H]1CC[C@@H]1[C@@H]2CC[C@]2(C)[C@@H](O)CC[C@@H]12", "note": "[dihydrotestosterone]", "values": [
      {"measurement": "increase in Shh transcripts", "setting": "Shh transcripts [9]", "result": "five-fold"}
    ]},
    {"compound": "CC1=C2C[C@H]3[C@@H](CC=C4C[C@@H](O)CC[C@@]43C)[C@@H]2CC[C@]12O[C@@H]1C[C@H](C)CN[C@H]1[C@H]2C", "note": "[Cy, cyclopamine]", "values": [
      {"measurement": "effect on VP cultures", "setting": "ventral prostate (VP) [3]", "result": "little or no effect"},
      {"measurement": "optimum concentration for growth inhibition", "setting": "ventral prostate (VP) [3]", "result": 1, "unit": "µM"},
      {"measurement": "toxicity to VP organ cultures (organs dying prematurely)", "setting": "ventral prostate (VP) [3]", "result": "toxic"},
      {"measurement": "mean bud tips per unit perimeter", "setting": "ventral prostate (VP) [4]; +T +Cy", "result": "69.84+/−1.13 bud tips per unit perimeter"},
      {"measurement": "mean bud tips per unit perimeter", "setting": "ventral prostate (VP) [4]; −T +Cy", "result": "74.47+/−1.07 bud tips per unit perimeter"},
      {"measurement": "mitotic nuclei in distal epithelial tips", "setting": "ventral prostate (VP) [5]", "result": "13.48%+/−0.93% and 16.28%+/−0.74%"},
      {"measurement": "CK14 expression", "setting": "ventral prostate (VP) [10]; +T +Cy", "result": "very few CK14-positive cells in distal tips"},
      {"measurement": "canalisation (lumens) of prostatic ducts", "setting": "ventral prostate (VP) [10]; +T +Cy", "result": "exhibited lumens in distal tips"},
      {"measurement": "p63 expression", "setting": "ventral prostate (VP) [10]; +T +Cy", "result": "confined to the basal cell layer of all distal tips"},
      {"measurement": "appearance of epithelial tips", "setting": "ventral prostate (VP) [10]; −T +Cy", "result": "did not alter the appearance of epithelial tips"},
      {"measurement": "toxicity to explants", "setting": "UGS explants; 5 μM Cy", "result": "toxic and caused premature organ death"},
      {"measurement": "toxicity to explants", "setting": "UGS explants; 10 μM Cy", "result": "toxic and caused premature organ death"},
      {"measurement": "prostatic buds", "setting": "UGS explants; +T +5 μM Cy", "result": "present"},
      {"measurement": "prostatic buds", "setting": "UGS explants; +T +10 μM Cy", "result": "present"}
    ]}
  ]
}
